Paper PMC4772543, “Immune responses to Mycobacterial heat shock protein 70 accompany self-reactivity to human BiP in rheumatoid arthritis” (Scientific Reports, 2016)

Experiments:
[1] = test system: CD4+ T cells from MycHSP70-immunized HLA-DR4 transgenic mice; assay: Splenic CD4+ T cell proliferation from MycHSP70-immunized HLA-DR4 transgenic mice in response to epitopes; assay type: cell-based, mouse; conditions: antigen 10 μg/mL, 72 h, irradiated splenocytes, 3H-thymidine
Method: Figure 5 Immunization of HLA-DR4 transgenic mice with MycHSP70. (A) HLA-DR4 transgenic mice were immunized with recombinant MycHSP70. Serum anti-MycHSP70 and anti-mouse BiP antibody titers were measured in the 21 days following the first immunization. (B) Splenic CD4+ T cell proliferation from MycHSP70-immunized HLA-DR4 transgenic mice in response to MycHSP70_287–306 and BiP336–355 epitopes. Proliferation was determined by the incorporation of [3]-H thymidine. Data were representative of at least three independent trials. ***p < 0.001.
HLA-DR4 transgenic mice were obtained from Taconic, immunized twice (day 0, 14) with 100 μg of MycHSP70 with the same volume of complete Freund’s adjuvant subcutaneously into the tails, and sacrificed on day 21. MACS-purified CD4^+ T cells (1 × 10^5/mL) were cultured with irradiated splenocytes (1 × 10^6/mL) and an antigen (10 μg/mL) in RPMI 1640 medium supplemented with 5% FCS, 2 mM L-glutamine, 100 U/ml penicillin, 100 μg/ml streptomycin, and 5 × 10^−5 M 2-mercaptoethanol in a humidified incubator at 37 °C, 5% CO2, for 72 h. ^3H-thymidine was pulsed to each well, cells were harvested after an 18-hour incubation, and analyzed with a scintillation counter.

[2] = test system: PBMCs of HLA-DR4-positive RA patients; assay: Peptide-induced cytokine secretion from PBMCs (ELISA); assay type: cell-based, human
Method: Figure 3 MycHSP70_287–306 was a HLA-DR4-restricted epitope in RA. (A) The proliferation of PBMCs in RA patients (Shared epitope (SE) +/+ n = 12, SE +/− n = 22, SE−/− n = 9) and HDs (SE +/− n = 10) in response to MycHSP70_287–306. Proliferation was determined by the incorporation of [3]-H thymidine. The stimulation index (SI) was calculated using the following equation: (median thymidine uptake to an antigen)/(median thymidine uptake in the absence of an antigen). Horizontal line: the median. (B) Amino acid sequences of MycHSP70 (lower lines) and human BiP (upper lines) near the epitopes. Epitope sequences are indicated in bold letters. (C) Relationship between MycHSP70_287–306-induced proliferation and BiP336–355-induced proliferation in RA PBMCs (9 patients with SE +/+ and 14 patients with SE +/−). (D) Blockade of the MycHSP287–306-induced proliferation of PBMCs from HLA-DR4-positive RA patients (n = 6) using an anti-HLA-DR antibody. (E) The secretion of MycHSP287–306-induced IFN-γ from the PBMCs of HLA-DR4-positive HDs (n = 6) and RA patients (n = 8). (F) Blockade of MycHSP287–306-induced cytokine secretion from the PBMCs of HLA-DR4-positive RA patients (n = 6) using an anti-HLA-DR antibody. *p < 0.05, **p < 0.01, ***p < 0.001.
PBMCs (1 × 10^6/mL) isolated with Ficoll-Paque (GE Healthcare) were cultured in the presence or absence of each peptide (10 μg/mL) with RPMI 1640 medium supplemented with 10% human serum, 2 mM L-glutamine, 100 U/ml penicillin, and 100 μg/ml streptomycin in a humidified incubator at 37 °C, 5% CO2, for 96 hours. Cells were incubated for 18 h following a ^3H-thymidine pulse into each well and harvested using a semiautomated sample harvester. Counts per minute were measured with a scintillation counter. In some experiments, the culture supernatants were collected after a 72-hour incubation and cytokine concentrations were measured in the culture supernatants by a human IFN-γ high sensitivity ELISA kit and human IL-17 high sensitivity ELISA kit (eBioscience). […]

[3] = peptide 10 μg/mL, supernatant after 72-hour incubation, ELISA

DRTRKPFQSVIADTGISVSE [MycHSP70_287–306]
CD4+ T cell proliferation in response to peptide [1]: significant CD4^+ T cell proliferation was induced
peptide-induced IFN-γ and IL-17 secretion with anti-HLA-DR antibody ([2]; HLA-DR4-positive RA patients n = 6, anti-HLA DR antibody (L243) 10 μg/mL): blocked
secretion of interferon (IFN)-γ [2, 3]: induced
secretion of interleukin (IL)-17 [2, 3]: induced
